Biological target: T1, human GPR139 (Homo sapiens, UniProt Q6DWJ6)
T1 construct: expressed in transfected cells; host or cells: CHO-TREx (Life Technologies) cells, expression induced with doxycycline
T1 sequence (Q6DWJ6 1-353): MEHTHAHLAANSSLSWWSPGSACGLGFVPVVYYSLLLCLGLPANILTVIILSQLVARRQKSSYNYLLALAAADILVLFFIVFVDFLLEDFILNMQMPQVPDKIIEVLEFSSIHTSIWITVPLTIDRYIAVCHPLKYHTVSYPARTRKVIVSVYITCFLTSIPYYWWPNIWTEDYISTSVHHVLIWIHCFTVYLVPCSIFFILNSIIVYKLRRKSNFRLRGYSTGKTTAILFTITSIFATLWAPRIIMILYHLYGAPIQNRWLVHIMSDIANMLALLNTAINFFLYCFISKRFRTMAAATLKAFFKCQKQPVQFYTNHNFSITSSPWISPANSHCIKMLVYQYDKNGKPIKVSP
Assay: Inhibition rate of the amount of IP1 in GPR139-expressed CHO cells (inverse agonist assay, Test Example 2)
Format: cell-based
Conditions: relative value, inhibition rate of Example Compound 2 in Test Example 1 defined as 100%; for inhibition at 30 µM: CHO
Summary of the method: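 IP1 accumulation read by IP-One HTRF after 40 min compound exposure at 37° C in stimulation buffer, 2000 cells/well, GPR139 expression induced the day before with doxycycline. Results given as relative inhibition rate, normalised to a reference compound set at […].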

SMILES | inhibition at 30 µM [%] | Inhibition Rate at 30 μM [%]
CCn1cc(Cn2cc(C)n(-c3cc(Br)cc(N4CCO[C@H](C)C4)c3)c2=O)cn1 [Example 89, 3-{3-bromo-5-[(2R)-2-methylmorpholin-4-yl]phenyl}-1-[(1-ethyl-1H-pyrazol-4-yl)methyl]-4-methyl-1,3-dihydro-2H-imidazol-2-one] | 101 | 
CCn1cc(Cn2c(C)cn(-c3cc(C(F)(F)F)nn3CCC3CCC3)c2=O)cn1 [Example 99, 1-[1-(2-Cyclobutylethyl)-3-(trifluoromethyl)-1H-pyrazole-5-yl]-3-[(I-ethyl-1H-pyrazole-4-yl)methyl]-4-methyl-1,3<dihydro-2H-imidazole-2-one] | 101 | 
CCn1cc(Cn2c(C)c(C)n(-c3cc(OC[C@@H]4CCCO4)cc(C(F)(F)F)c3)c2=O)cn1 [Example 100] | 99 | 
Cc1cn(Cc2cnn(C(C)C)c2)c(=O)n1-c1cc(OC[C@@H]2CCCO2)cc(C(F)(F)F)c1 [Example 101, 4-methyl-3-[3-{[(2S)-oxolan-2-yl]methoxy}-5-(trifluoromethyl)phenyl]-1-{[1-(propan-2-yl)-1H-pyrazol-4-yl]methyl}-1,3-dihydro-2H-imidazol-2-one] | 99 | 
CCn1cc(Cn2cc(C)n(-c3cc(C4CC4)cc(N4CCO[C@H](C)C4)c3)c2=O)cn1 [Example 104, 3-{3-cyclopropyl-5-[(2R)-2-methylmorpholin-4-yl]phenyl}-1-[(1-ethyl-1H-pyrazol-4-yl)methyl]-4-methyl-1,3-dihydro-2H-imidazol-2-one] | 104 | 
CCn1cc(Cn2cc(C)n(-c3cc(OCC(F)(F)F)cc(N4CCO[C@H](C)C4)n3)c2=O)cn1 [Example 105, 1-[(1-ethyl-1H-pyrazol-4-yl)methyl]-4-methyl-3-{6-[(2R)-2-methylmorpholin-4-yl]-4-(2,2,2-trifluoroethoxy)pyridin-2-yl}-1,3-dihydro-2H-imidazol-2-one] | 103 | 
CCn1cc(Cn2cc(C)n(-c3cc(C(F)(F)F)cc(OCC4CCCO4)n3)c2=O)cn1 (stereo not drawn) [Example 106, 1-[(1-ethyl-1H-pyrazol-4-yl)methyl]-4-methyl-3-{6-[(oxolan-2-yl)methoxy]-4-(trifluoromethyl)pyridin-2-yl}-1,3-dihydro-2H-imidazol-2-one] | 102 | 
CCn1cc(Cn2cc(C)n(-c3cc(OC[C@@H]4CCCO4)cc(C(F)(F)F)c3F)c2=O)cn1 [Example 107, 1-[(1-ethyl-1H-pyrazol-4-yl)methyl]-3-[2-fluoro-5-{[(2S)-oxolan-2-yl]methoxy}-3-(trifluoromethyl)phenyl]-4-methyl-1,3-dihydro-2H-imidazol-2-one] | 104 | 
CCn1cc(Cn2cc(C)n(-c3cc(C(F)(F)F)cc(OCC4CCCO4)n3)c2=O)cn1 (stereo not drawn) [Example 108, 1-[(1-ethyl-1H-pyrazol-4-yl)methyl]-4-methyl-3-{6-[(oxolan-2-yl)methoxy]-4-(trifluoromethyl)pyridin-2-yl}-1,3-dihydro-2H-imidazol-2-one] |  | 102
CCn1cc(Cn2cc(C)n(-c3cc(C(F)(F)F)cc(OCC4CCCO4)n3)c2=O)cn1 (stereo not drawn) [Example 109, 1-[(1-ethyl-1H-pyrazol-4-yl)methyl]-4-methyl-3-{6-[(oxolan-2-yl)methoxy]-4-(trifluoromethyl)pyridin-2-yl}-1,3-dihydro-2H-imidazol-2-one] |  | 101

The remaining lines, values ahead:

inhibition at 30 µM [%] | Inhibition Rate at 30 μM [%] | SMILES
99 |  | Cc1nn(-c2cc(N3CCO[C@@H](C)C3)cc(C(F)(F)F)c2F)c(=O)n1Cc1cnn(C(C)C)c1 [Example 90, 2-{2-fluoro-5-[(2S)-2-methylmorpholin-4-yl]-3-(trifluoromethyl)phenyl}-5-methyl-4-{[1-(propan-2-yl)-1H-pyrazol-4-yl]methyl}-2,4-dihydro-3H-1,2,4-triazol-3-one]
100 |  | Cc1nn(-c2cc(N3CCO[C@H](C)C3)cc(C(F)(F)F)c2F)c(=O)n1Cc1cnn(C(C)C)c1 [Example 91, 2-{2-fluoro-5-[(2R)-2-methylmorpholine-4-yl]-3-(trifluoromethyl)phenyl}-5-methyl-4-{[1-(propane-2-yl)-1H-pyrazole-4-yl]methyl}-2,4-dihydro-3H-1,2,4-triazole-3-one]
99 |  | Cc1nn(-c2cc(N(C)C3CCOCC3)cc(C(F)(F)F)c2F)c(=O)n1Cc1cnn(C(C)C)c1 [Example 92, 2-{2-fluoro-5-[methyl(oxan-4-yl)amino]-3-(trifluoromethyl)phenyl}-5-methyl-4-{[1-(propan-2-yl)-1H-pyrazol-4-yl]methyl}-2,4-dihydro-3H-1,2,4-triazol-3-one]
99 |  | Cc1nn(-c2cc(N3CCOC(C)(C)C3)cc(C(F)(F)F)c2F)c(=O)n1Cc1cnn(C(C)C)c1 [Example 93]
99 |  | Cc1nn(-c2cc(N3CCC(F)(F)C3)cc(C(F)(F)F)c2F)c(=O)n1Cc1cnn(C(C)C)c1 [Example 94, 2-[5-(3,3-difluoropyrrolidin-1-yl)-2-fluoro-3-(trifluoromethyl)phenyl]-5-methyl-4-{[1-(propan-2-yl)-1H-pyrazol-4-yl]methyl}-2,4-dihydro-3H-1,2,4-triazol-3-one]
100 |  | CCn1cc(Cn2c(C)nn(-c3cc(N(C)C4CCOCC4)cc(C(F)(F)F)c3F)c2=O)cn1 [Example 95, 4-[(1-ethyl-1H-pyrazol-4-yl)methyl]-2-{2-fluoro-5-[methyl(oxan-4-yl)amino]-3-(trifluoromethyl)phenyl}-5-methyl-2,4-dihydro-3H-1,2,4-triazol-3-one]
101 |  | CCn1cc(Cn2c(C)nn(-c3cc(N4CCOC(C)(C)C4)cc(C(F)(F)F)c3F)c2=O)cn1 [Example 96, 2-[5-(2,2-dimethylmorpholin-4-yl)-2-fluoro-3-(trifluoromethyl)phenyl]-4-[(1-ethyl-1H-pyrazol-4-yl)methyl]-5-methyl-2,4-dihydro-3H-1,2,4-triazol-3-one]
102 |  | CCn1cc(Cn2c(C)nn(-c3cc(N4CCC(F)(F)CC4)cc(C(F)(F)F)c3F)c2=O)cn1 [Example 97, 2-[5-(4,4-difluoropiperidin-1-yl)-2-fluoro-3-(trifluoromethyl)phenyl]-4-[(1-ethyl-1H-pyrazol-4-yl)methyl]-5-methyl-2,4-dihydro-3H-1,2,4-triazol-3-one]
99 |  | Cc1cn(-c2cc(N3CCO[C@H](C)C3)cc(C(F)F)c2F)c(=O)n1Cc1cnn(C(C)C)c1 [Example 98, 1-{3-(difluoromethyl)-2-fluoro-5-[(2R)-2-methylmorpholin-4-yl]phenyl}-4-methyl-3-{[1-(propan-2-yl)-1H-pyrazol-4-yl]methyl}-1,3-dihydro-2H-imidazol-2-one]
105 |  | CC(C)n1cc(Cn2ccn(-c3cc(C(F)(F)F)cc(N4CCO[C@H](C)C4)n3)c2=O)cn1 [Example 102, 1-{6-[(2R)-2-methylmorpholin-4-yl]-4-(trifluoromethyl)pyridin-2-yl}-3-{[1-(propan-2-yl)-1H-pyrazol-4-yl]methyl}-1,3-dihydro-2H-imidazol-2-one]
103 |  | Cc1cn(Cc2cnn(C(C)C)c2)c(=O)n1-c1cc(C(F)(F)F)cc(N2CCO[C@H](C)C2)n1 [Example 103, 4-Methy-3-{6-[(2R)-2-methylmorpholine-4-yl]-4-(trifluoromethyl)pyridine-2-yl}-1-{[1-(propane-2-yl)-1H-pyrazole-4-yl]methyl}-1,3-dihydro-2H-imidazole-2-one]

Reference: patent publication US12630534B2 (TAKEDA PHARMACEUTICAL COMPANY LIMITED, priority 2020, dated 2026)
